“Also recorded” adds a separate entry of the source.

Assay [1] deals with neutrophil transmigration across a confluent monolayer of cultured human umbilical vein endothelial cells (HUVEC). Kind of assay: Neutrophil transmigration assay across HUVEC monolayer on Transwells. The assay is classed as cell-based. The protocol: FIG. 1 is a graphical representation of inhibitors that act on MEK inhibit neutrophil transmigration across endothelium. A, Confluent HUVEC monolayers plated (5×10^4 cells/well) on Transwells were either unstimulated or activated with TNFα (4 ng/ml) for 4 hours. Thirty min prior to the assay some monolayers were treated with PD98059 (45 μM) or DMSO control. Neutrophils (5×10^5 cells/well) were added with either PD98059 or DMSO. Transmigration was assayed across TNFα-activated endothelium (TNF) and unstimulated endothelium with (fMLP) or without (Nil) a gradient of 10 nM fMLP. The assays were carried out in triplicate and 1 representative of 5 experiments shown. An ANOVA was performed looking for an effect of PD98059 compared to DMSO on transmigration: in this experiment p<0.0001 and in the overall series p<0.0001. B, Endothelial monolayers were treated as in A, but the concentration of PD98059 was varied as indicated. The data are presented as percentage of transmigration relative to that across unstimulated endothelium. One representative experiment of 7, each performed in triplicate, is shown. […] C, Endothelial cells on Transwells were left unstimulated or activated with TNFα as in A. Using the standard protocol, U0126 or its solvent, DMSO, were added to the monolayers 30 min prior to the experiment, and then added with the neutrophils. The results from one of two experiments, each performed in triplicate, is shown.
This was performed as previously described using Transwells (6.5 mm diameter, […] pore size, Costar, Cambridge, Mass.) on 24 well culture trays (Smith et al., 1991, supra). Briefly, 5×10^4 HUVEC (between passages 2 and 5) were seeded in the upper chamber of each Transwell pre-coated with fibronectin (50 μg/mL for 30 minutes) and the cells were grown at 37° C. in 5% CO2 supplemented air to form a confluent monolayer. Neutrophils were added at 5×10^5 cells/well to the top chamber and where indicated chemoattractant was added to the lower chamber. The neutrophils were incubated at 37° C. for 1 h after which the number that had transmigrated into the lower chamber were collected and counted. Transmigration is expressed as a percentage of neutrophils added.
Neutrophils were counted using one of two methods. Neutrophils retrieved from the lower compartment were either counted directly using a Coulter counter (Model ZF, Coulter, Herts, UK) or using an indirect colourimetric assay based on the conversion of a tetrazolium salt (MTT) to a formazan. Briefly, MTT (0.2 mg/ml, Sigma, St. Louis, […].) was added to the lower chamber and incubated for 4 hours at 37° C. The neutrophils were pelleted by centrifugation, the pellets resuspended in 200 μl acid isopropanol for an hour and the absorbance at 550 nm determined. A standard curve was constructed by serial dilution of the neutrophil preparation and the percentage of neutrophils transmigrating was calculated from this. The two methods used produced results of good fit (least squares fit regression analysis, >95% confidence) (data not shown).
To identify signalling pathways in the endothelium that are essential for neutrophil transmigration, a screen for their effects on transmigration was carried out using pharmacological inhibitors of various signalling pathways (data not shown). The studies were performed using an in vitro model of neutrophil transmigration across a confluent monolayer of cultured human umbilical vein endothelial cells (HUVEC). Transmigration induced by an exogeneously added chemoattractant gradient and across TNFα-activated endothelium were both examined. […] In general, transmigration across TNFα-activated endothelium was inhibited to a greater extent than transmigration across a gradient of fMLP, with 70-80% inhibition of transmigration across TNFα-activated endothelium compared to only 40-50% inhibition of transmigration across an fMLP gradient. The inhibitory effects of PD98059 were also confirmed using a second MEK inhibitor, U0126 (FIG. 1C).

The test system of assay [2] is neutrophil adhesion to TNFα-activated endothelium. Kind of assay: Neutrophil adhesion assay on HUVEC monolayer. The assay is classed as cell-based, human. The protocol:
(§1) A, Chemotaxis assay using neutrophils pretreated for 20 min at room temperature with 30 μM PD98059 or DMSO. Chemotaxis was stimulated by the presence of 10 nM fMLP, or 1 nM IL-8 in the lower chamber; medium alone served as a control (nil). The data represent one of three experiments, each performed in triplicate. ANOVA looking for an effect of PD98059 compared to DMSO on chemotaxis gave p=0.359. B, Confluent HUVEC monolayers were stimulated with TNFα for 4 h, with PD98059 or DMSO added in the final 30 min. The extent of neutrophil adhesion to the endothelium was determined using a standard adhesion assay. The data is presented as the percentage of neutrophil remaining adherent relative to that added (% adhesion). The results represent one of three experiments, each performed in triplicate. (p=0.238, t-test comparing DMSO+TNF with PD+TNF).
Adhesion assays were performed as previously described (Gamble, J. R., Y. Khew-Goodall, and M. A. Vadas. 1993. J Immunol. 150:4494-4503) with the exception that neutrophils were used. […] After washing the cells were stained with Rose Bengal and total numbers of adherent neutrophils determined by densitometry. The number of adherent neutrophils was computed from a standard curve and expressed as a percentage of the neutrophils added. […]

A further assay deals with neutrophil chemotaxis. Kind of assay: Neutrophil chemotaxis assay (Transwells, no HUVEC monolayer). The settings on record: 30 μM PD98059 vs DMSO. The assay is classed as cell-based, human. The method, then:
as §1
Chemotaxis assays were performed using Transwells essentially as in the transmigration assay except that the HUVEC monolayer was omitted. In addition, instead of pre-coating the upper chamber with fibronectin, the lower chamber was pre-coated with gelatin to prevent adhesion of neutrophils. […] Neutrophils that had migrated through the filters after 1 hour incubation at 37° C. were counted. Counts are expressed as a percentage of the total number of cells added. […]

In assay [3] the test system is endothelial ERK (HUVEC). The experiment in a line: ERK activation assay (Western blot with phospho-ERK Ab). The assay is classed as cell-based, human. Particulars: for endothelial ERK activation by direct treatment of endothelial monolayer: HUVEC treated 15 min, no neutrophils, anti-phospho-ERK Western blot. The protocol: A, Endothelial cells treated with 0.4 ng/ml TNFα (TNF), 30 ng/ml interleukin-4 (IL-4), 20 ng/ml oncostatin-M (OsM), 100 ng/ml PMA, or medium alone (Nil) for 15 minutes were assayed for Erk activation. Western blots shown were carried out using an anti-phospho-Erk Ab to detect activated Erk. Equal amounts of protein were loaded onto each lane. B, HUVEC were activated with TNFα for 4 hours or left unstimulated. After washing, either medium containing IL-8 (−) or neutrophils pre-treated with 1 nM IL-8 (+) were added at a 10:1 ratio of neutrophils to HUVEC and Erk activation assayed after 15 min at 37° C. Western blots shown were carried out using antibodies to phospho-Erk (upper panel) or reprobed with an anti-Erk polyclonal antibody after membranes were stripped (lower panel).
A, Neutrophils, untreated or incubated with a β2 integrin functional blocking antibody, TS1/18 (50 μg/ml), for 20 min at room temperature were added to HUVEC in the presence of 1 nM fMLP for 15 min. HUVEC monolayers were then analysed for Erk activation by Western blotting with an anti-phospho-Erk Ab. B, Neutrophils, untreated or treated with the TS1/18 Ab as in A, were added to 96-well tissue culture dishes in the presence or absence of 1 nM fMLP and neutrophil adhesion was determined. The data is presented as the percentage of neutrophil remaining adherent relative to that added (% adhesion). By ANOVA comparing +/−TS1/18, p=0.0002, n=3.
Resting HUVEC monolayers incubated with medium (nil), neutrophils (N) or neutrophil conditioned medium (CM), were analysed for Erk activation by Western blotting with an anti-phospho-Erk Ab. A, Neutrophils were stimulated for 15 minutes with 1 nM fMLP and then divided into two aliquots. One aliquot was centrifuged and the top 2/3 taken, carefully avoiding the cellular pellet, and added as conditioned medium (CM). The other aliquot was resuspended and 2/3 taken and added as the equivalent amount of neutrophil preparation (N). B. Conditioned media from neutrophils treated with 1 or 100 nM fMLP (prepared as in A) were added to HUVEC either undiluted (neat) or after diluting 1 in 3 (1/3) in medium. […]
HUVEC (10^6 cells/well) were seeded in 6-well tissue culture dishes. […] Protein concentration was determined using the Bradford reagent (BioRad) and equal amounts of protein loaded onto a 7.5% SDS polyacrylamide gel. […] Total ERK present was determined by stripping the filter and re-blotting with an antibody against ERK 1/2.
We therefore investigated whether ERK activation in the endothelium may be occurring under the conditions of the transmigration assay and which parameter(s) present in the assay system were responsible for its activation. Initially, the role of the inducers, TNFα and fMLP, used in the transmigration assay were assessed. […]

Assay [4] concerns endothelial ERK (HUVEC). The settings on record: Xia et al. 1998; cited from earlier work.

In the case of `COc1cccc(-c2cc(=O)c3ccccc3o2)c1N` [PD98059], the “effect on neutrophil transmigration across TNFα-activated endothelium” value in assay [1] (TNFα-activated HUVEC) is reported as “inhibit in a dose-dependent manner”. Also, the “inhibition of transmigration across TNFα-activated endothelium” value in assay [1] (TNFα-activated HUVEC, inhibitor added 30 min before and with neutrophils, 1 h) is given as 70-80%. Moreover, the “effect on neutrophil transmigration induced by a chemoattractant (fMLP) gradient” value in assay [1] (unstimulated HUVEC) is reported as “inhibit in a dose-dependent manner”. In assay [1] (unstimulated HUVEC, fMLP gradient (10 nM), 1 h), the “inhibition of transmigration across an fMLP gradient” value is recorded as 40-50%. The “neutrophil adhesion to TNFα-activated endothelium in presence of inhibitor” value in assay [2] (HUVEC stimulated with TNFα 4 h, inhibitor in final 30 min) is on record as “not significantly affected”. Besides, the IL-8-stimulated neutrophil chemotaxis entry in the assay with neutrophil chemotaxis (1 nM IL-8 in lower chamber) is on record as “not significantly affected”. Also, the fMLP-stimulated neutrophil chemotaxis entry in the assay with neutrophil chemotaxis (10 nM fMLP in lower chamber) is reported as “not significantly affected”.
As to `N#CC(=C(/N)Sc1ccccc1N)/C(C#N)=C(\N)Sc1ccccc1N` [U0126], in assay [1] (TNFα-activated HUVEC), the “effect on neutrophil transmigration across TNFα-activated endothelium” value is “inhibited transmigration across TNFα-activated endothelium to a similar extent as PD 98059”. Moreover, the “effect on neutrophil transmigration induced by a chemoattractant (fMLP) gradient” value in assay [1] (unstimulated HUVEC) is given as “showed greater potency against fMLP-driven transmigration”.
Turning to `CSCC[C@H](NC=O)C(=O)N[C@@H](CC(C)C)C(=O)N[C@@H](Cc1ccccc1)C(=O)O` [fMLP, N-formyl-methionyl-leucinyl-phenylalanine], the “endothelial ERK activation by direct treatment of endothelial monolayer” value (from here on “endothelial ERK activation”) in the assay with endothelial ERK (HUVEC) [3] was “did not activate endothelial ERK; also recorded: had no effect on endothelial ERK activation”. For the same molecule, in the assay with endothelial ERK (HUVEC) [3] (conditioned media of stimulated neutrophils added to HUVEC, phospho-ERK read-out), the “induction of the ERK-activating factor in neutrophils” value is listed as “induced the ERK-activating factor”.
For the molecule TNFα, in the assay with endothelial ERK (HUVEC) [4], the “fold activation of ERK (earlier observations)” value is 1.5-2.0 fold. For the same molecule, the “endothelial ERK activation” value in the assay with endothelial ERK (HUVEC) [3] is “marginally activated ERK”. The “neutrophil adhesion to endothelium after treatment of the endothelium” value in assay [2] (TNFα treatment of HUVEC, 4 h) is “stimulated neutrophil adhesion”.

B1: IL-4: interleukin-4 (protein, UniProt P05112 25-153, looked up)
Interleukin-4: HKCDITLQEIIKTLNSLTEQKTLCTELTVTDIFAASKNTTEKETFCRAATVLRQFYSHHEKDTRCLGATAQQFHRHKQLIRFLKRLDRNLWGLAGLNSCPVKEANQSTLENFLERLKTIMREKYSKCSS
For the molecule B1, the “endothelial ERK activation” value with endothelial ERK (HUVEC) [3] is given as “marginally activated ERK”.
